From ChEMBL document CHEMBL3886859, “Pyridine derivatives” (2016) come the findings set out here.

For experiment [1], the target named is Procathepsin L (Homo sapiens, UniProt P07711). The experiment in a line: (§1) Enzyme Inhibition Assay: Enzyme activity is measured by observing the increase in fluorescence intensity caused by cleavage of a peptide substrate containing a fluorophore whose emission is quenched in the intact peptide.Assay buffer: 100 mM potassium phosphate pH 6.5, EDTA-Na 5 mM, Triton X-100 0.001%, DTT 5 mM.Enzymes (all at 1 nM): human and mouse Cathepsin S, Cat K, Cat B, Cat L.Substrate (20 μM): Z-Val-Val-Arg-AMC, except for Cat K which uses Z-Leu-Arg-AMC (both from Bachem).Z=Benzyloxycarbonyl.AMC=7-Amino-4-Methyl-Coumarin.DTT=dithiothreitol.Final volume: 100 μL.Excitation 360 nm, Emission 465 nm.Enzyme is added to the substance dilutions in 96-well microtitre plates and the reaction is started with substrate. Fluorescence emission is measured over 20 minutes, during which time a linear increase is observed in the absence of inhibitor.

Experiment [2] addresses Cathepsin S (Homo sapiens, UniProt P25774). The experiment is described as §1.

The IC50 is the concentration that gives 50% inhibition. Low readings indicate greater potency, high ones weaker potency.

Procathepsin L, sequence (P07711 whole entry): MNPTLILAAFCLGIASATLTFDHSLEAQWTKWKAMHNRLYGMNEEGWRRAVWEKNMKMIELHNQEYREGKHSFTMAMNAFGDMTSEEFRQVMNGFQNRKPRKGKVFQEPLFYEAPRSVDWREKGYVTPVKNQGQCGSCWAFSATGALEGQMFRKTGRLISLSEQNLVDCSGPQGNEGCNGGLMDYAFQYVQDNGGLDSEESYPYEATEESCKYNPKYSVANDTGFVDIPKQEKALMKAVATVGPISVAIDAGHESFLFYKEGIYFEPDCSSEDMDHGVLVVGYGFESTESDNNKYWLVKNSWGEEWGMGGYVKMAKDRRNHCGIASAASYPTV
Cathepsin S, sequence (P25774 whole entry): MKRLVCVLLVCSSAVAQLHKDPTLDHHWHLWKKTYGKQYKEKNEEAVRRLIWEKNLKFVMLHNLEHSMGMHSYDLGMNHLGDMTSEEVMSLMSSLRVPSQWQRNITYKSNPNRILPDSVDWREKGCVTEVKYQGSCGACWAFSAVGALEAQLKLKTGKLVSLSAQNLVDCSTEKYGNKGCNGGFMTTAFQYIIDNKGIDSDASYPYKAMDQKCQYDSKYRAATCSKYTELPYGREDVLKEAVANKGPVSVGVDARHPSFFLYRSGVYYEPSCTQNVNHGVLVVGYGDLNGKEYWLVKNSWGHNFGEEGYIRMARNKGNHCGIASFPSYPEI

As to `N#CC1(NC(=O)[C@@H]2C[C@@H](Sc3ncc(C(F)(F)F)cc3Cl)CN2C(=O)C2(c3ncc(Cl)cc3F)CC2)CC1`, the values for the IC50 in experiment [1] and in experiment [2] were over 25000 nM and 1030 nM, respectively.

For `N#CC1(NC(=O)[C@@H]2C[C@@H](S(=O)(=O)c3ccc(Br)cc3Cl)CN2C(=O)C2(c3ncc(Cl)cc3F)CC2)CC1`, the IC50 came to 72.6 nM in experiment [1] and 0.474 nM in experiment [2].

On to `N#CC1(NC(=O)[C@@H]2C[C@@H](S(=O)(=O)c3cc(C(F)(F)F)ccc3Cl)CN2C(=O)C2(c3ncc(Cl)cc3F)CC2)CC1`, for which the IC50 was found to be 56.8 nM in experiment [1] and 0.543 nM in experiment [2].
